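Assay format: 96-well plates, 48-hour exposure. The concentration for 50% growth inhibition is given as GI50. At the TGI there is no net growth.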
Tests used:
Assay in all cases: growth of human tumour cells (NCI), 48 h
MDA-MB-435 = test system: MDA-MB-435
SK-MEL-28 melanoma = test system: SK-MEL-28 melanoma
MDA-MB-231 breast = test system: MDA-MB-231 breast
NCI-H460 lung = test system: NCI-H460 lung
K-562 leukemia = test system: K-562 leukemia
U251 CNS = test system: U251 CNS
HS 578T breast = test system: HS 578T breast
A549 NSCLC = test system: A549 NSCLC
PC-3 prostate = test system: PC-3 prostate
SF-268 CNS = test system: SF-268 CNS

| SMILES | GI50 (MDA-MB-435) | TGI (MDA-MB-435) | GI50 (SK-MEL-28 melanoma) | TGI (SK-MEL-28 melanoma) | GI50 (MDA-MB-231 breast) | TGI (MDA-MB-231 breast) | GI50 (NCI-H460 lung) | TGI (NCI-H460 lung) | GI50 (K-562 leukemia) | TGI (K-562 leukemia) | GI50 (U251 CNS) | TGI (U251 CNS) | GI50 (HS 578T breast) | TGI (HS 578T breast) | GI50 (A549 NSCLC) | TGI (A549 NSCLC) | GI50 (PC-3 prostate) | TGI (PC-3 prostate) | GI50 (SF-268 CNS) | TGI (SF-268 CNS) |
| --- | --- | --- | --- | --- | --- | --- | --- | --- | --- | --- | --- | --- | --- | --- | --- | --- | --- | --- | --- | --- |
| C=C1CC[C@@](C)(c2cc(Br)c(C)cc2OC(C)=O)[C@H]1C | 13.3 µM | 27.5 µM | 11.7 µM | 24 µM | 12.5 µM | 25.9 µM | 11.3 µM | 25 µM | 14 µM | 30.2 µM | 15.2 µM | 29.7 µM | 19.3 µM | 42.5 µM | 12.3 µM | 26.5 µM | 11.1 µM | 24.2 µM | 13.2 µM | 28.3 µM |
| COc1cccc(N2C(=N)/C(=C3\Nc4ccccc4S3)CC2=O)c1 | > 100 µM | > 100 µM | > 100 µM | > 100 µM | 51.1 µM | > 100 µM | 2.89 µM | 26.3 µM | 3.92 µM | > 100 µM | 3.89 µM | > 100 µM | 27.5 µM | > 100 µM | 5.49 µM | > 100 µM | 3.03 µM | > 100 µM | 5.22 µM | > 100 µM |
| Cc1ccc2c(-c3ccnc(Nc4cccc(C(F)(F)F)c4)n3)c(-c3ccccc3)nn2n1 | 6.77 µM | > 25 µM | > 15.4 µM | > 25 µM | 3.34 µM | 8.64 µM | 6.42 µM | > 16.4 µM | > 25 µM | > 25 µM | 10.3 µM | > 25 µM | 7.13 µM | > 25 µM | 6.18 µM | > 25 µM | > 13 µM | > 25 µM | > 15.2 µM | > 25 µM |
| CCOC(=O)C(Cc1ccccc1)n1c(O)c(/C=N/c2ncc(Cc3ccc(Cl)cc3Cl)s2)sc1=S (stereo not given) | 3.38 µM | > 100 µM | 2.61 µM | 26.4 µM | 3.88 µM | 21.4 µM | 2.09 µM | 12.4 µM | 2.03 µM | > 100 µM | 2.51 µM | 15 µM | 3.62 µM | 41.1 µM | 3.68 µM | > 100 µM | 2.08 µM | > 100 µM | 2.42 µM | 64.8 µM |
| N#CC(Cl)CS(=O)(=O)c1ccccc1 (stereo not given) |  | 32.1 µM |  | 28 µM |  | 41.4 µM |  | 38.8 µM |  | 4.85 µM |  | 44.7 µM |  | > 100 µM |  | 41.7 µM |  | 31.6 µM |  | 24.3 µM |
| COc1cc2c3c(n(CCCNCCCCN)c(=O)c2cc1OC)-c1cc2c(cc1C3=O)OCO2 | 6.11 µM | 20.4 µM | 4.49 µM | > 54.2 µM | 2.86 µM | 9.13 µM | < 0.041 µM | 7.38 µM | 4.1 µM | > 100 µM | 0.234 µM | 6.54 µM | 3.76 µM | 16.1 µM | 5.48 µM | 25 µM | 4.51 µM | 26 µM | 3.1 µM | 10.3 µM |
| CCc1nc(N)nc(N)c1-c1ccc(N2CCNCC2)c([N+](=O)[O-])c1 |  | > 100 µM |  | > 100 µM |  | 69.2 µM |  | > 100 µM |  | > 90.2 µM |  | > 100 µM |  | > 74.2 µM |  | > 100 µM |  | > 100 µM |  | > 37.5 µM |
| O=C(Nc1nc2ccc(OC(F)(F)F)cc2s1)c1ccc(F)cc1 | 2.98 µM | > 100 µM | 3.6 µM | > 100 µM | 3.3 µM | 18.9 µM | 3.02 µM | 20.7 µM | 3.58 µM | > 100 µM | 3.98 µM | > 100 µM | 3.12 µM | > 100 µM | 3.51 µM | > 100 µM | 2.81 µM | 8.7 µM | 3.71 µM | > 100 µM |
| C=C(CC)C(=O)c1ccc(OCC(=O)O)c(Cl)c1Cl |  | 32.3 µM |  | 33.6 µM |  | 34.6 µM |  | > 69.9 µM |  | > 100 µM |  | 29.7 µM |  | 45.9 µM |  | > 100 µM |  | > 81.8 µM |  | 33.1 µM |
| COC(=O)NC1=Nc2ccccc2C(=O)NN1 |  | > 100 µM |  | > 100 µM |  | > 100 µM |  | > 100 µM |  | > 100 µM |  | > 100 µM |  | > 100 µM |  | > 100 µM |  | > 100 µM |  | > 100 µM |
